From patent US12637424B2, “Pharmaceutical salt of an arylpyrrole derivative” (SENTINEL ONCOLOGY LIMITED, priority 2020, dated 2026)
Like-named read-outs stand apart in the source and are kept apart here.

Columns and labels:
U-2932 = test: Cancer cell line panel proliferation (CellTiter-Glo); assay type: cell-based; conditions: U-2932, Blood/Lymphoma, 72 hours
Description: (§1) Screening against diverse cancer cell lines was performed to identify tumour types displaying sensitivity to atropisomers A-1 and A-2. A panel of 48 cancer-derived cell lines was screened in a high-throughput proliferation assay using dilutions of atropisomers A-1/A-2. Cell lines that were screened included those representing cancer of the pancreas, large intestine/colorectum, lung, brain and nerves, and lymphoma and leukaemia cell lines. Cell lines were treated with serial half-log dilutions of compound and assayed 72 hours later for proliferation using CellTiter-Glo Assay (Promega). IC50 values were calculated by fitting the dose-response data using a nonlinear regression model.

LN-229 = test: as above; assay type: cell-based; conditions: LN-229, Brain&Nerves, 72 hours
Description: as §1

RKO = test: as above; assay type: cell-based; conditions: Large intestine/Colorectum, 72 hours
Description: as §1

MIA PaCa-2 = test: as above; assay type: cell-based; conditions: MIA PaCa-2, Pancreas, 72 hours
Description: as §1

SW1088 = test: as above; assay type: cell-based; conditions: SW1088, Brain&Nerves, 72 hours
Description: as §1

HT-29 = test: as above; assay type: cell-based; conditions: HT-29, Large intestine/Colorectum, 72 hours
Description: as §1

NCI-H1299 = test: as above; assay type: cell-based; conditions: NCI-H1299, Lung, 72 hours
Description: as §1

HBL-1 = test: as above; assay type: cell-based; conditions: HBL-1, Blood/Lymphoma, 72 hours
Description: as §1

ML-2 = test: as above; assay type: cell-based; conditions: ML-2, Blood/Leukaemia, 72 hours
Description: as §1

SW480 = test: as above; assay type: cell-based; conditions: SW480, Large intestine/Colorectum, 72 hours
Description: as §1

A-172 = test: as above; assay type: cell-based; conditions: A-172, Brain&Nerves, 72 hours
Description: as §1

Daudi = test: as above; assay type: cell-based; conditions: Blood/Lymphoma, 72 hours
Description: as §1

PANC-1 = test: as above; assay type: cell-based; conditions: PANC-1, Pancreas, 72 hours
Description: as §1

AsPC-1 = test: as above; assay type: cell-based; conditions: AsPC-1, Pancreas, 72 hours
Description: as §1

Kasumi-1 = test: as above; assay type: cell-based; conditions: Kasumi-1, Blood/Leukaemia, 72 hours
Description: as §1

GRANTA-519 = test: as above; assay type: cell-based; conditions: GRANTA-519, Blood/Lymphoma, 72 hours
Description: as §1

OCI-LY-19 = test: as above; assay type: cell-based; conditions: OCI-LY-19, Blood/Lymphoma, 72 hours
Description: as §1

HCC44 = test: as above; assay type: cell-based; conditions: HCC44, Lung, 72 hours
Description: as §1

LoVo = test: as above; assay type: cell-based; conditions: Large intestine/Colorectum, 72 hours
Description: as §1

BxPC-3 = test: as above; assay type: cell-based; conditions: BxPC-3, Pancreas, 72 hours
Description: as §1

COLO 205 = test: as above; assay type: cell-based; conditions: COLO 205, Large intestine/Colorectum, 72 hours
Description: as §1

NCI-H1975 = test: as above; assay type: cell-based; conditions: NCI-H1975, Lung, 72 hours
Description: as §1

T98G = test: as above; assay type: cell-based; conditions: Brain&Nerves, 72 hours
Description: as §1

NCI-H460 = test: as above; assay type: cell-based; conditions: NCI-H460, Lung, 72 hours
Description: as §1

SW620 = test: as above; assay type: cell-based; conditions: SW620, Large intestine/Colorectum, 72 hours
Description: as §1

DOHH-2 = test: as above; assay type: cell-based; conditions: DOHH-2, Blood/Lymphoma, 72 hours
Description: as §1

NCI-H1792 = test: as above; assay type: cell-based; conditions: NCI-H1792, Lung, 72 hours
Description: as §1

MV-4-11 = test: as above; assay type: cell-based; conditions: MV-4-11, Blood/Leukaemia, 72 hours
Description: as §1

[1] = tested on: U87MG Human Glioblastoma Cancer Cell; test: U87MG cell viability (SRB assay); assay type: cell-based; conditions: 72 hours, read-out: IC50 for inhibition of cell growth
Description: The following protocol was used to measure the effects of atropisomers A-1 and A-2 on U87MG cell viability. U87MG cells were grown in their recommended growth media/supplements (ATCC). Cells were seeded at a concentration of 5000 cells per well into 96 well plates overnight at 37° C., 5% CO2. Cells were treated with relevant concentrations of test compound for 72 hours. After 72 h incubation, viability was established using sulforhodamine B (SRB) colorimetric assay. Percentage viability was calculated against the mean of the DMSO treated control samples, and IC50 values for inhibition of cell growth were calculated using GraphPad Prism software by nonlinear regression (4 parameter logistic equation).

[2] = Chiral stability (interconversion) of isolated atropisomers in ethanol; assay type: physicochemical; conditions: for % ee of sample @ 40° C. / % ee sample @ 80° C.: ethanol; for interconversion / racemization of atropisomers: heating for 10 days at 40° C. and 80° C.
Description: To assess the interconversion of atropisomer A-1 and atropisomer A-2, chiral stability was monitored at 40° C. and 80° C. […] 1. 2×1 mg of pure atropisomer was dissolved in 1 mL of ethanol in a sealed-dram vial. • 2. One set of vials was heated at 40° C. and another set at 80° C. • 3. At specified time-points a 20 μL aliquot from each stock solution (1 mL) was taken and quenched into a HPLC vial containing a 80 μL solution of hexane:ethanol; 80:20 to afford a final concentration of […] and the sample was analysed by chiral HPLC • 4. Analysis was carried out at the following time-points: 0 h, 24 h, 48 h, 72 h, 96 h and 240 h for the samples kept at 40° C. and 24 h, 96 h and 240 h for the samples kept at 80° C. using chiral HPLC method 5

CN(C)CCNC(=O)c1ccc(-c2ccc(-c3ccc(Cl)cc3)n2-c2ccccc2C(F)(F)F)cc1 (single isomer, unassigned) [Atropisomer A-2]
IC50 (U-2932; Homo sapiens, U2932): 280 nM | IC50 (LN-229; Homo sapiens): 310 nM | IC50 (RKO; Homo sapiens): 160 nM | IC50 (MIA PaCa-2; Homo sapiens): 330 nM | IC50 (SW1088; Homo sapiens): 770 nM | IC50 (HT-29; Homo sapiens): 450 nM | IC50 (NCI-H1299; Homo sapiens): 370 nM | IC50 (HBL-1; HBL1): 660 nM | IC50 (ML-2; Homo sapiens): 180 nM | IC50 (SW480; Homo sapiens): 870 nM | IC50 (A-172; Homo sapiens): 340 nM | IC50 (Daudi; Homo sapiens): 390 nM | IC50 (PANC-1; Homo sapiens): 830 nM | IC50 (AsPC-1; Homo sapiens, ASPC1): 2900 nM | IC50 (Kasumi-1; Homo sapiens): 330 nM | IC50 (GRANTA-519; Homo sapiens): 220 nM | IC50 (OCI-LY-19; Homo sapiens, OCI-LY19): 220 nM | IC50 (HCC44; Homo sapiens): 480 nM | IC50 (LoVo; Homo sapiens): 540 nM | IC50 (BxPC-3; Homo sapiens): 300 nM | IC50 (COLO 205; Homo sapiens): 380 nM | IC50 (NCI-H1975; Homo sapiens): 630 nM | IC50 (T98G; Homo sapiens): 280 nM | IC50 (NCI-H460; Homo sapiens): 300 nM | IC50 (SW620; Homo sapiens, SW-620): 190 nM | IC50 (DOHH-2; Homo sapiens): 230 nM | IC50 (NCI-H1792; Homo sapiens): 250 nM | IC50 (MV-4-11; Homo sapiens, MV4-11): 280 nM | IC50 ([1]; Homo sapiens, U-87 MG): 220 nM | % ee of sample @ 40° C. ([2]; 0 h): 97.20 % ee | % ee of sample @ 40° C. ([2]; 24 h): 97.34 % ee | % ee of sample @ 40° C. ([2]; 48 h): 97.30 % ee | % ee of sample @ 40° C. ([2]; 72 h): 97.24 % ee | % ee of sample @ 40° C. ([2]; 96 h): 97.14 % ee | % ee of sample @ 40° C. ([2]; 10 days): 97.46 % ee | % ee sample @ 80° C. ([2]; 0 h): 97.20 % ee | % ee sample @ 80° C. ([2]; 24 h): 95.62 % ee | % ee sample @ 80° C. ([2]; 96 h): 96.62 % ee | % ee sample @ 80° C. ([2]; 10 days): 97.12 % ee | interconversion / racemization of atropisomers [2]: no interconversion was observed

CN(C)CCNC(=O)c1ccc(-c2ccc(-c3ccc(Cl)cc3)n2-c2ccccc2C(F)(F)F)cc1 (single isomer, unassigned; atropisomer a) [Atropisomer A-1]
IC50 (U-2932): 4470 nM | IC50 (LN-229): 7370 nM | IC50 (RKO): 6170 nM | IC50 (MIA PaCa-2): 9170 nM | IC50 (SW1088): 8490 nM | IC50 (HT-29): 4530 nM | IC50 (NCI-H1299): 8250 nM | IC50 (HBL-1): 9940 nM | IC50 (ML-2): 4010 nM | IC50 (SW480): 7550 nM | IC50 (A-172): 7070 nM | IC50 (Daudi): 7170 nM | IC50 (PANC-1): > 10000 nM | IC50 (AsPC-1): > 10000 nM | IC50 (Kasumi-1): 5130 nM | IC50 (GRANTA-519): 7420 nM | IC50 (OCI-LY-19): 6670 nM | IC50 (HCC44): 8260 nM | IC50 (LoVo): 8360 nM | IC50 (BxPC-3): 6970 nM | IC50 (COLO 205): 6750 nM | IC50 (NCI-H1975): 5140 nM | IC50 (T98G): 5260 nM | IC50 (NCI-H460): 8130 nM | IC50 (SW620): 8350 nM | IC50 (DOHH-2): 5640 nM | IC50 (NCI-H1792): 7730 nM | IC50 (MV-4-11): 6490 nM | IC50 [1]: 4600 nM | % ee of sample @ 40° C. ([2]; 0 h): 100 % ee | % ee of sample @ 40° C. ([2]; 24 h): 100 % ee | % ee of sample @ 40° C. ([2]; 48 h): 100 % ee | % ee of sample @ 40° C. ([2]; 72 h): 100 % ee | % ee of sample @ 40° C. ([2]; 96 h): 100 % ee | % ee of sample @ 40° C. ([2]; 10 days): 100 % ee | % ee sample @ 80° C. ([2]; 0 h): 100 % ee | % ee sample @ 80° C. ([2]; 24 h): 100 % ee | % ee sample @ 80° C. ([2]; 96 h): 100 % ee | % ee sample @ 80° C. ([2]; 10 days): 100 % ee | interconversion / racemization of atropisomers [2]: no interconversion was observed
